Test results taken from patent US8884061B2, “Compositions and methods of use of electron transport system inhibitors” (priority 2006, dated 2014).
Converted amounts (≈) assume the structure as drawn.

How the values were obtained:
[1] = tested on: M. tuberculosis H37Rv; experiment: MIC, agar (7H11) dilution method; type: cell-based; settings: M. tuberculosis H37Rv
[2] = tested on: M. tuberculosis Kurono; experiment: MIC, agar (7H11) dilution method; type: cell-based; settings: M. tuberculosis Kurono; agar (7H11) dilution
[3] = tested on: M. bovis BCG Tokyo; experiment: microbe, parasite or virus in culture; type: cell-based; settings: M. bovis BCG Tokyo; agar (7H11) dilution
[4] = tested on: M. avium Flamingo; experiment: MIC, agar (7H11) dilution method; type: cell-based
[5] = tested on: M. intracellularae ATCC 15984; experiment: MIC, agar (7H11) dilution method; type: cell-based
[6] = tested on: M. kansasii NIHJ1619; experiment: MIC, agar (7H11) dilution method; type: cell-based
[7] = tested on: M. aurum; experiment: MIC, agar (7H11) dilution method; type: cell-based
[8] = tested on: M. fortuitum NIHJ1615; experiment: MIC, agar (7H11) dilution method; type: cell-based
[9] = tested on: M. smegmatis Takeo; experiment: MIC, agar (7H11) dilution method; type: cell-based
[10] = tested on: S. aureus ATCC 29213; experiment: MIC, other bacteria (Table 3); type: cell-based; settings: inoculum size 10^6 CFU/ml
[11] = tested on: S. aureus ATCC 43300 (MRSA); experiment: MIC, other bacteria (Table 3); type: cell-based; settings: inoculum size 10^6 CFU/ml
[12] = tested on: VRSA 2441-T0041; experiment: MIC, other bacteria (Table 3); type: cell-based, S. aureus; settings: VRSA 2441-T0041, low level VCM-resistant; inoculum size 10^6 CFU/ml
[13] = tested on: VRSA 2441-T0044; experiment: MIC, other bacteria (Table 3); type: cell-based, S. aureus; settings: VRSA 2441-T0044, low level VCM-resistant; inoculum size 10^6 CFU/ml
[14] = tested on: MRSA 2441-05104; experiment: MIC, other bacteria (Table 3); type: cell-based, S. aureus; settings: inoculum size 10^6 CFU/ml
[15] = tested on: MRSA 2441-05112; experiment: MIC, other bacteria (Table 3); type: cell-based, S. aureus; settings: inoculum size 10^6 CFU/ml
[16] = tested on: MRSA 2441-05129; experiment: MIC, other bacteria (Table 3); type: cell-based, S. aureus; settings: inoculum size 10^6 CFU/ml
[17] = tested on: MRSA 2441-05223; experiment: MIC, other bacteria (Table 3); type: cell-based, S. aureus; settings: inoculum size 10^6 CFU/ml
[18] = tested on: MRSA 2441-05254; experiment: MIC, other bacteria (Table 3); type: cell-based, S. aureus; settings: inoculum size 10^6 CFU/ml
[19] = tested on: MRSA 2441-05262; experiment: MIC, other bacteria (Table 3); type: cell-based, S. aureus; settings: inoculum size 10^6 CFU/ml
[20] = tested on: S. epidermidis ATCC 12228; experiment: MIC, other bacteria (Table 3); type: cell-based; settings: inoculum size 10^6 CFU/ml
[21] = tested on: MRSE 2442-05030; experiment: MIC, other bacteria (Table 3); type: cell-based, S. epidermidis; settings: inoculum size 10^6 CFU/ml
[22] = tested on: MRSE 2442-05047; experiment: MIC, other bacteria (Table 3); type: cell-based, S. epidermidis; settings: inoculum size 10^6 CFU/ml
[23] = tested on: MRSE 2442-05053; experiment: MIC, other bacteria (Table 3); type: cell-based, S. epidermidis; settings: inoculum size 10^6 CFU/ml
[24] = tested on: MRSE 2442-05060; experiment: MIC, other bacteria (Table 3); type: cell-based, S. epidermidis; settings: inoculum size 10^6 CFU/ml
[25] = tested on: MRSE 2442-05110; experiment: MIC, other bacteria (Table 3); type: cell-based, S. epidermidis; settings: inoculum size 10^6 CFU/ml
[26] = tested on: MRSE 2442-05118; experiment: MIC, other bacteria (Table 3); type: cell-based, S. epidermidis; settings: inoculum size 10^6 CFU/ml
[27] = tested on: E. faecalis ATCC 29212; experiment: MIC, other bacteria (Table 3); type: cell-based; settings: inoculum size 10^6 CFU/ml
[28] = tested on: E. faecalis ATCC 51299 (VRE); experiment: MIC, other bacteria (Table 3); type: cell-based; settings: low level VCM-resistant, Van B, inoculum size 10^6 CFU/ml
[29] = tested on: E. faecalis NCTC 12201 (VRE); experiment: MIC, other bacteria (Table 3); type: cell-based; settings: high level VCM-resistant, Van A, inoculum size 10^6 CFU/ml
[30] = tested on: E. faecium ATCC 49224; experiment: MIC, other bacteria (Table 3); type: cell-based; settings: E. faecium ATCC 49224, GM-resistant; inoculum size 10^6 CFU/ml
[31] = tested on: E. faecium NCTC 12203 (VRE); experiment: MIC, other bacteria (Table 3); type: cell-based; settings: high level VCM-resistant, Van A, inoculum size 10^6 CFU/ml
[32] = tested on: E. coli ATCC 25922; experiment: MIC, other bacteria (Table 3); type: cell-based; settings: inoculum size 10^6 CFU/ml
[33] = tested on: K. pneumoniae ATCC 27736; experiment: MIC, other bacteria (Table 3); type: cell-based; settings: inoculum size 10^6 CFU/ml
[34] = tested on: P. mirabilis ATCC 4630; experiment: MIC, other bacteria (Table 3); type: cell-based; settings: inoculum size 10^6 CFU/ml
[35] = tested on: S. marsascens ATCC 14756; experiment: MIC, other bacteria (Table 3); type: cell-based; settings: inoculum size 10^6 CFU/ml
[36] = tested on: P. aeruginosa ATCC 27853; experiment: MIC, other bacteria (Table 3); type: cell-based; settings: inoculum size 10^6 CFU/ml

Structure (SMILES): C=CCN(C)CCCCCCCCOc1ccc(C(=O)c2ccc(Cl)cc2)c(Cl)c1 [Cpd #20]
- Minimum inhibitory concentrations (MIC) ([1]; table line r7 (1st of 5 so labelled)): 6.25 µg/mL (≈ 13.9 µM)
- Minimum inhibitory concentrations (MIC) ([1]; table line r8 (2nd of 5 so labelled)): 6.25 µg/mL (≈ 13.9 µM)
- Minimum inhibitory concentrations (MIC) ([1]; table line r9 (3rd of 5 so labelled)): 6.25 µg/mL (≈ 13.9 µM)
- Minimum inhibitory concentrations (MIC) ([1]; table line r10 (4th of 5 so labelled)): 6.25 µg/mL (≈ 13.9 µM)
- Minimum inhibitory concentrations (MIC) ([1]; table line r11 (5th of 5 so labelled)): 6.25 µg/mL (≈ 13.9 µM)
- Minimum inhibitory concentrations (MIC) [2]: 6.25 µg/mL (≈ 13.9 µM)
- Minimum inhibitory concentrations (MIC) [3]: 6.25 µg/mL (≈ 13.9 µM)
- Minimum inhibitory concentrations (MIC) [4]: 12.5 µg/mL (≈ 27.9 µM)
- Minimum inhibitory concentrations (MIC) [5]: 12.5 µg/mL (≈ 27.9 µM)
- Minimum inhibitory concentrations (MIC) [6]: 12.5 µg/mL (≈ 27.9 µM)
- Minimum inhibitory concentrations (MIC) [7]: 12.5 µg/mL (≈ 27.9 µM)
- Minimum inhibitory concentrations (MIC) [8]: >25 µg/mL
- Minimum inhibitory concentrations (MIC) [9]: 25 µg/mL (≈ 55.7 µM)
- MIC [10]: 25 µg/mL (≈ 55.7 µM)
- MIC [11]: 25 µg/mL (≈ 55.7 µM)
- MIC [12]: 50 µg/mL (≈ 111 µM)
- MIC [13]: 50 µg/mL (≈ 111 µM)
- MIC [14]: 25 µg/mL (≈ 55.7 µM)
- MIC [15]: 25 µg/mL (≈ 55.7 µM)
- MIC [16]: 25 µg/mL (≈ 55.7 µM)
- MIC [17]: 25 µg/mL (≈ 55.7 µM)
- MIC [18]: 25 µg/mL (≈ 55.7 µM)
- MIC [19]: 25 µg/mL (≈ 55.7 µM)
- MIC [20]: 25 µg/mL (≈ 55.7 µM)
- MIC [21]: 12.5 µg/mL (≈ 27.9 µM)
- MIC [22]: 12.5 µg/mL (≈ 27.9 µM)
- MIC [23]: 12.5 µg/mL (≈ 27.9 µM)
- MIC [24]: 12.5 µg/mL (≈ 27.9 µM)
- MIC [25]: 12.5 µg/mL (≈ 27.9 µM)
- MIC [26]: 12.5 µg/mL (≈ 27.9 µM)
- MIC [27]: 12.5 µg/mL (≈ 27.9 µM)
- MIC [28]: 25 µg/mL (≈ 55.7 µM)
- MIC [29]: 12.5 µg/mL (≈ 27.9 µM)
- MIC [30]: 12.5 µg/mL (≈ 27.9 µM)
- MIC [31]: 12.5 µg/mL (≈ 27.9 µM)
- MIC [32]: >100 µg/mL
- MIC [33]: >100 µg/mL
- MIC [34]: >100 µg/mL
- MIC [35]: >100 µg/mL
- MIC [36]: >100 µg/mL

Structure (SMILES): COc1cccc(OC)c1C(=O)N[C@@H]1C(=O)N2[C@@H]1SC(C)(C)[C@@H]2C(=O)O [DMPPC, reference compound]
- MIC [10]: 1.56 µg/mL (≈ 4.1 µM)
- MIC [11]: 3.13 µg/mL (≈ 8.23 µM)
- MIC [12]: >400 µg/mL
- MIC [13]: >400 µg/mL
- MIC [14]: 100 µg/mL (≈ 263 µM)
- MIC [15]: 400 µg/mL (≈ 1050 µM)
- MIC [16]: >400 µg/mL
- MIC [17]: 125 µg/mL (≈ 329 µM)
- MIC [18]: >400 µg/mL
- MIC [19]: >400 µg/mL
- MIC [20]: 1.56 µg/mL (≈ 4.1 µM)
- MIC [21]: 1.56 µg/mL (≈ 4.1 µM)
- MIC [22]: 400 µg/mL (≈ 1050 µM)
- MIC [23]: 3.13 µg/mL (≈ 8.23 µM)
- MIC [24]: 200 µg/mL (≈ 526 µM)
- MIC [25]: 3.13 µg/mL (≈ 8.23 µM)
- MIC [26]: 200 µg/mL (≈ 526 µM)
- MIC [27]: 25 µg/mL (≈ 65.7 µM)
- MIC [28]: 50 µg/mL (≈ 131 µM)
- MIC [29]: 100 µg/mL (≈ 263 µM)
- MIC [30]: >400 µg/mL
- MIC [31]: >400 µg/mL
- MIC [32]: >400 µg/mL
- MIC [33]: >400 µg/mL
- MIC [34]: >400 µg/mL
- MIC [35]: >400 µg/mL
- MIC [36]: >400 µg/mL
